The source of these data is article PMC8397418, “Novel Bis-Thiazole Derivatives: Synthesis and Potential Cytotoxic Activity Through Apoptosis With Molecular Docking Approaches” (Frontiers in Chemistry, 2021).

The subject of one experiment is C-myc in KF-28 cells. Briefly: Western blot of C-myc expression. The settings on record: two days, vs DMSO. It is filed as cell-based, human. The source says: Pim-1 has been classified as a weak oncogene. However, a very strong synergism with regard to tumorigenicity occurs between Pim-1 and C-myc. This synergism is observed with bitransgenic mice overexpressing C-myc and Pim-1 in lymphoid tissue ([Möröy et al., 1991]). To further validate the simulation and docking data which introduced Pim-1 kinase as a potential target molecule for some of the tested compounds, we decided to check the effect of treatment with the selected compounds on the C-myc protein expression as a downstream target molecule known to be phosphorylated and stabilized by Pim-1 as a kinase ([Zhang et al., 2008]). […] Taking into consideration the fact that Pim-1 phosphorylates C-myc and controls its stability ([Zhang et al., 2008]) may conclude that the reduction of C-myc expression under the indicated compounds is due to the inhibition of Pim-1 activity (Figure 3). Therefore, the speculated inhibition of Pim-1 is supported by the above-mentioned qPCR data (Figure 3) and further supported by C-myc downregulation. Our results agree with the reported one which states that some thiazole derivatives are potent inhibitors against protein kinases including Pim-1 kinase ([Mohareb et al., 2019]).
Cell lysates were prepared by lysing cells in RIPA buffer (10 mM Tris (pH 7.4), 150 mM NaCl, 1% Triton X-100, 1% Na deoxycholate), supplemented with protease inhibitor cocktail (Sigma). Protein concentration of whole cell lysates was determined by the […] using the BSA kit (Pierce), and then equal protein amounts were heated to 95 °C for 5 min with sodium dodecyl sulfate (SDS) sample buffer (25 ml glycerol, 31.2 ml Tris buffer, 7.5 ml SDS, a dash of bromophenol blue/100 ml) and run on 15% SDS polyacrylamide gel electrophoresis (SDS-PAGE). Protein samples were then blotted onto PVDF membranes (Immobilon P, Watford, United Kingdom). The membranes were incubated in blocking solution (5% non-fat milk in PBS) for 1 h and then in primary antibody (anti-human C-myc pAb (Abcam; at dilution of 2:1,000) or GAPDH mAb (Santa Cruz; at dilution of 20:1,000)) overnight. After 3 × 10 min washes in TBS (0.1% Tween-20 in PBS), the membrane was incubated for 1 h at room temperature with horseradish-peroxidase–linked (HRP) secondary anti-rabbit or anti-mouse Ab (1:1,000 dilution in PBS). Signals on the membrane were developed using ECL reagent (Amersham, CA, United States) and then were imaged with the Chemidoc system (Bio-Rad, United States).

The test system of a further experiment is KF-28 cells. The experiment is described as follows: Annexin V-FITC/PI apoptosis assessment. It is filed as cell-based, human. The settings on record: 48 h, cisplatin 10 μM, DMSO control 0.45%. The procedure:
Therefore, we decided to use such technique to investigate if the cytotoxic effect of the compounds indicated by MTT and the cell cycle experiments is apoptotic cell death or not. For that purpose, two cell lines, KF-28 and A2780, were stained by annexin V/PI after treatment with different compounds vs. DMSO for two days in parallel with cisplatin as a reference drug. Results from annexin staining analysis show appreciated annexin V–stained populations when cells are treated with compounds 5a–c, 5f, and 9. […] Similar results were obtained from the other cell line, A2780, treated with the same compounds (Figure 2B).
The cells were seeded into six-well culture plates (3–5 × 10^5 cells/well) and incubated overnight at 37°C, under 5% CO2. The cells were then treated with indicated compounds for 48 h. Next, media supernatants and the cells were collected and washed with ice-cold PBS. Next, the cells were stained with PI (10 mg/ml) for 30 min and analyzed for DNA contents using flow cytometry analysis using an FL2 (λex/em 535/617 nm) signal detector (ACEA Novocyte™ flow cytometer, ACEA Biosciences, Inc., San Diego, CA, United States). For each sample, 12,000 events are acquired. Cell cycle distribution is calculated using a CytoFLex machine and analyzed by CytExpert software. Flow cytometric methodologies (annexin V/PI staining with cell cycle analyses) are carried out as previously described ([Nafie et al., 2020a]; [Nafie et al., 2020b]; [Gad et al., 2020]).

Experiment [1] deals with MDA-MB-231 breast cancer cells. Briefly: MTT cytotoxicity assay, MDA-MB-231. It is filed as cell-based. Conditions: Homo sapiens, MDA-MB-231; MTT, 72 h, n = 3; read-out: IC50 MDA-MB-231 (Breast). Here is the method:
The synthesized derivatives were screened for their cytotoxic activities against five cancer cell lines (two breast cancer cell lines: MCF-7 and MDA-MB-231, two ovarian cancer cell lines: A2780 and KF-28, and one cervical cancer cell line: Hela). This study was performed using serial concentrations of 25, 50, 100, 150, and 200 µM of each compound using the MTT assay. Percentages of cell viability of the tested compounds with serial concentration against the tested panel of cell lines are depicted in Figure 1, in which there is a decrease in the cell viability with increasing concentrations in a dose–response pattern. […] Therefore, compounds 5a, 5b, and 5f were thought worthwhile to further investigate their effects as either cytotoxic or antiproliferative effects and whether any of them is an inducer of apoptotic cell death in the representative cancer cell lines KF-28 and A2780.
The human ovarian serous carcinoma cell line KF-28 was kindly provided by Prof. Yoshihiro Kikuchi (Department of Obstetrics and Gynecology, National Defense Medical College, Saitama, Japan), and A2780 cell line was purchased from the ECACC (ECACC 93112519). The cells were maintained in RPMI-1640 (Sigma-Aldrich, United States). The cervical cancer cell line, Hela cells, breast cancer cell line, MCF-7, and MDA-MB-231 were purchased from the ATCC and cultured in DMEM. Both types of media were supplemented with 2 mM L-glutamine (Lonza, Belgium), 10% FBS (Sigma, St. Louis, MO, United States), and 1% penicillin/streptomycin (Lonza, Belgium). All cells were incubated at 37°C in 5% CO2 atmosphere (NuAire). All cancer cell lines were cultured according to the routine tissue culture work as discussed by the Freshney group ([Freshney, 2010]). The cells were plated at a density of 5,000 cells in triplicates in a 96-well plate. On the next day, the cells were treated with the indicated compound(s) at the indicated concentrations in a final volume of 100 μL media. Cell viability was assessed after 72 h using MTT solution (Promega) ([Mosmann, 1983]). 20 μL of the reagent was added to each well, the plate was incubated for 3 h, […] was subsequently measured (570 nm) using a plate reader, and then the IC50 values were calculated using Excel ([Tantawy et al., 2020]).
(In general: Tetrazolium assays rely on reduction of a dye to a coloured formazan, in cell work by metabolically active cells.)

Structures are written as SMILES. “Also recorded” adds a separate entry of the source.

Regarding `Cc1[nH]c(=NN=C2CCC(=NN=c3[nH]c(C)c(N=Nc4ccccc4)s3)CC2)sc1N=Nc1ccccc1` [5a, 1,4-Bis((5-phenylazo-4-methylthiazol-2-ylidene)hydrazono)cyclohexane], in the experiment on C-myc in KF-28 cells, the “C-myc protein expression (Western blot)” value is listed as “observable downregulation”. In the experiment on KF-28 cells, the “Total apoptotic cell death (annexin V-positive cells)” value is 38.21%.

On to `Cc1[nH]c(=NN=C2CCC(=NN=c3[nH]c(C)c(N=Nc4ccccc4Cl)s3)CC2)sc1N=Nc1ccccc1Cl` [5f, 1,4-Bis((5-(2-chlorophenylazo)-4-methylthiazol-2-ylidene)hydrazono)cyclohexane], for which the IC50 (as a rule, the point on the concentration scale where inhibition reaches its midpoint) in experiment [1] was above 200 µM. For the same compound, in the experiment on C-myc in KF-28 cells, the “C-myc protein expression (Western blot)” value is “observable downregulation; also recorded: Appreciated downregulation”.

Turning to `Cc1ccc(N=Nc2sc(=NN=C3CCC(=NN=c4[nH]c(C)c(N=Nc5ccc(C)cc5)s4)CC3)[nH]c2C)cc1` [5b, 1,4-Bis((5-(4-tolylazo)-4-methylthiazol-2-ylidene)hydrazono)cyclohexane], in experiment [1], the IC50 is above 200 µM. For the same compound, the “C-myc protein expression (Western blot)” value in the experiment on C-myc in KF-28 cells was “observable downregulation; also recorded: Appreciated downregulation”. The “Total apoptotic cell death (annexin V-positive cells)” value in the experiment with KF-28 cells is 18.77%.
